Test results published in US6417159B1 (Queen's University at Kingston, priority 1996, dated 2002).
Where “and” joins values, the source holds several entries; their conditions need not be identical. Equal values may be shown once. Read-outs that look alike come from different tables or passages of the source. Where no end group is shown, it is not given here. The star is where a group is joined. 125I = [125I]*

How the values were obtained:
[1] = test system: PC12 cells; assay type: cell-based, rat
Experimental: Labeling of all tyrosinated peptides for uptake studies were carried out using IODO-BEADS™ (Pierce). Briefly, 5 μg of the desired peptide was iodinated at pH 7.4, at room temperature, and separated from free iodide by selective elution from a C-18 SEP PAK LIGHT™ (Waters-Millipore) in 80% CH3CN, 1.0% trifluoroacetic acid. The solvent was removed at room temperature under a stream of nitrogen. Specific activity of labeled peptide was 50-65 cpm-pg^−1.
Stock solutions of [^125I]-labeled peptides (final concentration […], specific activity 50-800 cpm·pmol^−1) were prepared in RPMI medium with 10% fetal calf serum. Uptake was initiated by adding the peptide to the cell suspension in RPMI 1640 with 10% fetal calf serum, maintained at 37° C. Cell-associated label was determined by counting the cell pellet obtained by microcentrifuging an aliquot (100 μl containing 1-3×10^5 cells) of the cell suspension through a layer of silicone oil. The silicone oil was 3:1 mixture of dibutyl phthalate:dinonyl phthalate (Fluke Chemie, Switzerland) with a density of 1.027 (Drevon et al., 1977).
The uptake versus were corrected for “adsorption” of peptides to the cell surface at zero time. This was assessed by determining label that remained associated with cells removed immediately after the addition of [^125I]-peptide and washed by 2 cycles of centrifugation at […] for 5 minutes and resuspension in peptide-free tissue culture medium. At the indicated times, cold chase values were obtained by removing an aliquot (500 μl) of the cell suspension for centrifugation at 150×g for 5 minutes, followed by resuspension in its initial volume of RPMI+10% fetal calf serum containing 50 μM (10×original) unlabeled peptide. The cell suspension was then returned at 37° C. for a further 30 minutes. At the end of this time, cell-associated label was determined as above.

[2] = test system: PC12 cells; test: NGF-mediated neurite growth by PC12 cells; assay type: cell-based, rat; conditions: PC12 cells, peptide co-incubated with NGF
Experimental: PC12 cells or PC12^nnr5 cells (Loeb et al., 1991) were seeded on poly-D-lysine-coated (0.1 mg·ml^−1, overnight) 96-well microculture dishes (Falcon) at approximately 800 cells per well with RPMI with 10% fetal calf serum. Peptides were added to replicate wells 48 hours before, or at the time of, addition of NGF. NGF was prepared by the method of Mobley et al. (1976) and used at 1-2 nM. Other additives were diluted at least 100-fold and added to the wells as described. At various times following incubation at 37° C., 5% CO2, wells were scored for neurite-bearing cells by serial counting of representative circumferences of each well.
A Leitz Diavert inverted microscope with phase optics was used to score neurite growth. For both PC12 cells and sensory neurons, a neurite was scored as such if its calibre from origin to terminal was approximately the same and the length was equal to or greater than 1.5 cell body diameters.

[3] = test system: ED8 chick DRG neurons; test: NGF-mediated neurite growth by ED8 chick DRG sensory neurons; assay type: cell-based; conditions: for % of Control Response DRG: (peptide with NGF − NGF alone)/(R3 with NGF − NGF alone) ×100, scored at 43, 44 and 48 hours, M ± SEM, n = 3 assays; for Reduction (loss) of biological effect relative to R3 on enhancement of NGF-mediated neurite growth: DRG cells, 40-50 hours in vitro; for Neurite growth in control wells: 16-20 hours
[4] = biological target: T1, p65 subunit of NFkB (Rattus norvegicus, UniProt Q7TQN4); test: Chemical cross-linking of 125I-Y-R3 to 65 kDa species in PC12 soluble extract, displacement by unlabeled peptide; assay type: binding; conditions: for Displacement of radiolabel from 65 kDa band: 0.5 μM 125I-Y-R3, 150-fold molar excess of unlabeled peptide, densitometric scanning
T1 construct: endogenous in cells; host or cells: PC12 (soluble cell extract)
Experimental: Y-R3 (5 μg) was labeled with 1 mCi of Na^125I (Amersham) using iodobeads (Pierce) in 50 mM sodium phosphate buffer, as described in Part A. ^125I-Y-R3 (0.5 μM) was incubated with PC12 cell extract (prepared as above) or affinity purified proteins at pH 7.0, with and without a 150-fold molar excess of competing unlabeled peptide for 2 hrs at 4° C. At that time, EDC (Pierce) and NHS (Pierce) were added to a final concentration of 2 mM each and the reaction allowed to proceed for 30 min at room temperature. The reaction was quenched by adding Tris-HCl to a final concentration of 50 mM. An aliquot was removed and mixed with 4 volumes of SDS sample buffer for SDS-PAGE and the remainder subjected to immunoprecipitation.
Cell extract or R3 affinity purified material was incubated for 4 hrs at 4° C. with 5 μl of agarose conjugated goat anti-NFkB p65 (Santa Cruz). The gel was washed at 4° C. with 5×1 ml of HKR containing 1% NP40, followed by a final wash without detergent. SDS reducing sample buffer was added to the gel and the samples were heated at 95° C. for 5 minutes prior to electrophoresis as described above.
To examine the structural specificity of the interaction of R3 peptide with the 65 kDa species, PC12 cell soluble extract was chemically cross-linked with 0.5 μM ^125I-Y-R3 in the absence and presence of a 150-fold molar excess of unlabeled R9 or R10. […] The reaction mixtures were separated by SDS-PAGE, followed by autoradiography.

[5] = test system: c-fos mRNA; conditions: one-hour exposure
[6] = test system: PC12 cells; test: Cytotoxicity in PC12 cultures; conditions: concentration of 50 μM
[7] = biological target: T2, p65 subunit of transcription factor NFkB from PC12 cell soluble extract (rat, UniProt Q7TQN4 1-550); test: chemical cross-linking (EDC/NHS) of 125I-Y-R3 to PC12 soluble extract, SDS-PAGE, autoradiography
T2 construct: also called NFkB p65; 65 kDa species
Experimental: (§1) At that time, EDC (Pierce) and NHS (Pierce) were added to a final concentration of 2 mM each and the reaction allowed to proceed for 30 min at room temperature. The reaction was quenched by adding Tris-HCl to a final concentration of 50 mM. An aliquot was removed and mixed with 4 volumes of SDS sample buffer for SDS-PAGE and the remainder subjected to immunoprecipitation.

[8] = biological target: T2, p65 subunit of transcription factor …; test: affinity chromatography of PC12 soluble extract on R3 matrix, SDS-PAGE, silver stain
Experimental: PC12 cells were harvested and washed by 3 cycles of resuspension and centrifugation in Ca^2+, Mg^2+-free Gey's Balanced Salt Solution (CMF). […] The column was then washed with 10 bed volumes of homogenizing buffer and 10 bed volumes of detergent-free homogenizing buffer. The bound material was then eluted with 0.5 mg/ml R3 peptide. The eluate was dialyzed (3500 cut off) extensively against 10 mM sodium phosphate pH 7.4 and taken to dryness under reduced pressure on a Speed Vac (Savant).
A soluble extract of PC12 cells was applied to the R3 affinity resin. […] A similar profile was obtained when extracts from "primed" (exposed to 100 ng/ml NGF for 10 days) PC12 cells, PC12^nnr5 cells or ED9 chick brain were used.

[9] = biological target: T2, p65 subunit of transcription factor …; test: competition of unlabeled R3 against 125I-Y-R3 cross-linking to the 65 kDa protein
Experimental: as §1
The p65 subunit of NFkB was detected in PC12 soluble extracts and in the R3-affinity purified material (FIG. 9A). This 65 kDa protein could also be specifically cross-linked to the iodinated probe for the intracellular domain of P75^NTR, the interaction being displaced by a 150-fold molar excess of unlabeled peptide, and the complex immunoprecipitated by antibodies to the transcription factor (FIGS. 9B and […]).

[10] = 10 μM peptide in solution, no additive to culture medium
[11] = time course of association with PC12 cells

T2 sequence (Q7TQN4 whole entry): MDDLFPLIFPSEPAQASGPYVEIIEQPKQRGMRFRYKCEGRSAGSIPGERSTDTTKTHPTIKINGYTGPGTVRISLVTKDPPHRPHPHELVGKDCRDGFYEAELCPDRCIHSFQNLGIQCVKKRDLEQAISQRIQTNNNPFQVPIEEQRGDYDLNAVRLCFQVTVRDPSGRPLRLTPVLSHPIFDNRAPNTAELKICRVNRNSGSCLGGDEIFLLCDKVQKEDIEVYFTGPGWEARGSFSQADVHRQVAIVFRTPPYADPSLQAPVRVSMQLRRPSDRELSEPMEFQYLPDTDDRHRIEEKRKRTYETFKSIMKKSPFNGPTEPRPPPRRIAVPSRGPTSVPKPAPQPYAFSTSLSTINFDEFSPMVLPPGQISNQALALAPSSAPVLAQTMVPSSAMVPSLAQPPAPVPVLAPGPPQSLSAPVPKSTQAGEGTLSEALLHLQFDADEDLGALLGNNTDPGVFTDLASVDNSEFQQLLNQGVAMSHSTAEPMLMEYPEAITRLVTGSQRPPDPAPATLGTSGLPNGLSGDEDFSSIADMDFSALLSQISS
T1 sequence (Q7TQN4 whole entry): as above

## R4: hybrid: R3 linked via its amino terminus to an 11-amino acid peptide homologue of the inner transmembrane domain of p75^NTR (Sequence ID No. 7) (VVVGLVAYIAFLDALLAALRRIQR)
[1]
  Cell association resistant to chase (uptake), in words: did not suggest an uptake process
[1]; [10]
  Time at half-maximal uptake: 0 min
[2]
  Effect on NGF-mediated neurite growth, co-incubation, in words: did not enhance NGF-mediated neurite growth

## LDALLAALRAIQR [R9]
[3]
  % of Control Response DRG: 61 ± 1^(5) %
  Reduction (loss) of biological effect relative to R3 on enhancement of NGF-mediated neurite growth: approximately 40%
[3]; in vitro
  Activity relative to R3 in influencing NGF-mediated neurite growth: 50-60% and 61%
[4]
  Displacement of radiolabel from 65 kDa band: 76%

## LDALLAALRRRQR [R10]
[3]
  % of Control Response DRG: 29 ± 4^(5) %
  Reduction (loss) of biological effect relative to R3 on enhancement of NGF-mediated neurite growth: approximately 70%
[4]
  Displacement of radiolabel from 65 kDa band: 43%

## nerve growth factor [NGF]
[3]; NGF 0.04 pM alone
  Neurite growth in control wells: 5.5±2.1
[3]; NGF 0.4 pM alone
  Neurite growth in control wells: 14.0±6.1
[3]; NGF 4 pM alone
  Neurite growth in control wells: 31.7±8.7
[3]; NGF 40 pM alone
  Neurite growth in control wells: 44.8±8.6

## mastoparan [MP]
[2]
  Effect on NGF-mediated neurite growth, co-incubation, in words: did not significantly influence
[5]
  Effect on NGF-mediated c-fos mRNA induction, in words: stimulatory effect
[6]
  Cytotoxicity, in words: cytotoxic

## Y-R3: tyrosinated peptide analogue of R3, N-terminal tyrosine (Sequence ID No. 6); radio-iodinated for uptake and cross-linking (YLDALLAALRRIQR; also: radio-iodinated)
[1]
  Uptake at full saturation: 20 pmol/10^6 cells
[1]; [10]
  Time at half-maximal uptake: 30 min
[1]; 10 μM peptide, MgCl2 (10 mM) added to culture medium
  Time at half-maximal uptake: 30 min
[1]; cold chase
  Time for which label remained resistant to chase by excess unlabeled R3: up to 50 hours
[1]; [11]
  Time at which uptake was half-maximally saturated: 30 min
  Time to full saturation of uptake: 10 to 20 h
[4]; soluble PC12 extract
  Interaction with 65 kDa species by chemical cross-linking, in words: interacted specifically

B1: 125I-Y-R3 (R3 peptide with N-terminal tyrosine, radio-iodinated) (peptide)
peptide: Y(125I)LDALLAALRRIQR
notes: Used at 0.5 uM in cross-linking with EDC/NHS; also called tyrosinated peptide analogue of R3; iodinated probe for the intracellular domain of p75NTR
[7]
  binding result: binds

B2: R3 affinity matrix peptide (R3 with six residues added to the N-terminus, coupled to Aminolink agarose) (peptide)
peptide: KAYIAFLDALLAALRRIQR
modifications: also: coupled at pH 7.0 to Aminolink agarose
notes: Immobilised on agarose beads in the assay
[8]
  binding result: binds

## LDALLAALRRIQR (also called peptide R3; unlabeled R3) [R3 peptide (synthetic peptide identical to rat p75NTR 367-379)]
[9]
  binding result: binds
